Where “and” joins values, the source holds several entries; their conditions need not be identical. Equal values may be shown once.
Tested on: alternative splicing of host transcripts in HeLa rtTA HIV∆Mls cells
Experiment: RT-PCR of host alternative splicing events (PSI), capillary electrophoresis
Format: cell-based
Parameters: PSI ZNF827_1 / PSI RAN_1 / PSI SEC24B_1 / PSI SMN2_1 / PSI TRIM37_1 / PSI RPS24_1 / PSI PDCL_1 / PSI SMN2_2 / PSI SETD5_1 / PSI RAI14_1 / PSI TPM1_1 / PSI SPAG9_1 / PSI POLDIP3_1 / PSI SRPK2_1 / PSI POMT1_1: concentration or dose not given beside the values
Settings: for DPSI TPM1_1: P Value 0.330
Description: To assess the effect of compounds on expression/alternative splicing of cellular RNA, two approaches were used. For both, total RNA was prepared from DMSO or compound-treated cells. In the first assay, samples were assayed by medium throughput RT-PCR to determine the inclusion levels of alternatively spliced exons and splice sites located in 73 selected events. 73 primer sets containing a fluorescently (5-FAM) labeled primer for each, were used in RT-PCR. PCR products generated were denatured in formamide and quantified using ABI Prism capillary sequencer (Life Technologies). The fragment analysis was performed on the PeakScanner software (Life Technologies) in batch mode and automated using custom scripts written in Python. The inclusion level of each exon was calculated as the amount of transcripts carrying the alternative exon relative to the total amount of all transcripts detected in the PCR reaction and results are summarized for compound-treatment in comparison to DMSO treatment. In the second assay, extracted RNA was processed using the Illumina TruSeq RNA Sample Preparation Kit (Illumina) according to the manufacturer’s instructions. The cDNA library generated was validated (passed quality control on a Bioanalyzer 1000 DNA chip (Agilent)), normalized and pooled for cluster generation. cDNA libraries were sequenced on the Illumina HiSeq 2500 (paired-end, 125 bp) with version 4 chemistry following manufacturer’s protocols. The full human genome and transcriptomic sequences were downloaded from the UCSC Genome Browser (genome.ucsc.edu) database and Ensembl (www.ensembl.org), respectively, as described by Irimia et al.. Exon annotations and genomic coordinates for alternative splicing (AS) analysis were derived from tables downloaded from the UCSC Genome Browser database. To determine gene expression (GE) or alternative splicing (AS) changes in an unbiased way, the effective number of unique mappable positions in each transcript (i.e. the effective length) was determined by aligning sequences with unique transcriptomic alignment to the human genome using Bowtie. Reads with one unique genomic alignment were then aligned against the canonical transcriptome and, for each transcript, the number of reads with one unique transcriptomic alignment were counted. The expression level of genes was quantified as corrected ‘reads per kilobase of exon model per million mapped reads’ (cRPKM), a widely used metric to estimate gene expression levels. The expression cutoff was 0.5 cRPKM, corresponding to the transcript of the gene being present if there were ≥10 reads that mapped uniquely to a single genomic locus. Approximately 19,847 Ensembl annotated protein-coding genes were compared to create a gene list of differentially expressed genes. Genes were considered differentially expressed if fold changes in cRPKM was ≥2 in compound-treated versus DMSO-treated samples.

[1] = of 70 AS events, 5193892 vs DMSO, HeLa rtTA-HIV-DMls cells

SMILES: COc1ccc(C=NNC(=O)c2ccccc2O)cc1O [Compound 892, 2-hydroxy-N′-(3-hydroxy-4-methoxybenzylidene)benzohydrazide]
- PSI NUMB_2 (chr14:72815742-72815885, HeLa rtTA-HIV-DMls cells, replicates 25, 26, 27): 26.00
- DPSI NUMB_2 (chr14:72815742-72815885, mean PSI 5193892 minus DMSO, n=3, P Value 0.004): 8.67%
- PSI NUMB_2 (chr14:72820542-72820835, HeLa rtTA-HIV-DMls cells, replicates 25, 26, 27): 82.00 and 96.00 and 95.00
- DPSI NUMB_2 (chr14:72820542-72820835, mean PSI 5193892 minus DMSO, n=3, P Value 0.525): 4.67%
- PSI MARK3_1 (chr14:103034592-103034618, HeLa rtTA-HIV-DMls cells, replicates 25, 26, 27): 20.00 and 13.00 and 16.00
- DPSI MARK3_1 (chr14:103034592-103034618, mean PSI 5193892 minus DMSO, n=3, P Value 0.734): 1.00%
- PSI MARK3_1 (chr14:103036246-103036290, HeLa rtTA-HIV-DMls cells, replicates 25, 26, 27): 11.00 (2×) and 9.00
- PSI TPM1_1 (chr15:61140450-61140525, HeLa rtTA-HIV-DMls cells, replicates 25, 26, 27): 84.00 and 73.00 and 67.00
- DPSI TPM1_1 (chr15:61140450-61140525, mean PSI 5193892 minus DMSO, n=3): -6.67%
- PSI TPM1_1 (chr15:61140965-61141040, HeLa rtTA-HIV-DMls cells, replicates 25, 26, 27): 16.00 and 27.00 and 33.00
- DPSI TPM1_1 (chr15:61140965-61141040, mean PSI 5193892 minus DMSO, n=3): 6.67%
- PSI CA12_1 (chr15:61406400-61406485, HeLa rtTA-HIV-DMls cells, replicates 25, 26, 27): 96.00 and 100.00 and 95.00
- DPSI CA12_1 (chr15:61406400-61406485, mean PSI 5193892 minus DMSO, n=3, P Value 0.851): 0.33%
- PSI CA12_1 (chr15:61407349-61407382, HeLa rtTA-HIV-DMls cells, replicates 25, 26, 27): 15.00 and 7.00 and 4.00
- PSI MRIP_1 (chr17:17024646-17024708, HeLa rtTA-HIV-DMls cells, replicates 25, 26, 27): 32.00 and 31.00 (2×)
- DPSI MRIP_1 (chr17:17024646-17024708, mean PSI 5193892 minus DMSO, n=3, P Value 0.101): 1.00%
- PSI ATP6V0A1_1 (chr17:37919833-37920004, HeLa rtTA-HIV-DMls cells, replicates 25, 26, 27): 81.00 and 86.00 and 77.00
- DPSI ATP6V0A1_1 (chr17:37919833-37920004, mean PSI 5193892 minus DMSO, n=3, P Value 0.331): 3.33%
- PSI SPAG9_1 (chr17:46408223-46408261, HeLa rtTA-HIV-DMls cells, replicates 25, 26, 27): 25.00 and 17.00 and 16.00
- PSI TRIM37_1 (chr17:54433741-54433857, HeLa rtTA-HIV-DMls cells, replicates 25, 26, 27): 69.00 and 71.00 and 68.00
- DPSI TRIM37_1 (chr17:54433741-54433857, mean PSI 5193892 minus DMSO, n=3, P Value 0.063): -4.33%
- PSI FAM104A_1 (chr17:68720412-68720474, HeLa rtTA-HIV-DMls cells, replicates 25, 26, 27): 15.00 and 20.00 and 18.00
- DPSI FAM104A_1 (chr17:68720412-68720474, mean PSI 5193892 minus DMSO, n=3, P Value 0.523): -2.33%
- PSI EXOC7_1 (chr17:71598005-71598035, HeLa rtTA-HIV-DMls cells, replicates 25, 26, 27): 35.00 and 23.00 and 25.00
- DPSI EXOC7_1 (chr17:71598005-71598035, mean PSI 5193892 minus DMSO, n=3, P Value 0.709): 2.67%
- PSI EXOC7_1 (chr17:71598819-71598911, HeLa rtTA-HIV-DMls cells, replicates 25, 26, 27): 27.00
- DPSI EXOC7_1 (chr17:71598819-71598911, mean PSI 5193892 minus DMSO, n=3, P Value 0.003): 5.67%
- PSI MBD1_1 (chr18:46054554-46054721, HeLa rtTA-HIV-DMls cells, replicates 25, 26, 27): 28.00 and 15.00 and 9.00
- PSI APP_1 (chr21:26291546-26291602, HeLa rtTA-HIV-DMls cells, replicates 25, 26, 27): 30.00 and 32.00 and 34.00
- DPSI APP_1 (chr21:26291546-26291602, mean PSI 5193892 minus DMSO, n=3, P Value 0.279): 1.67%
- PSI APP_1 (chr21:26294201-26294368, HeLa rtTA-HIV-DMls cells, replicates 25, 26, 27): 71.00 and 77.00 and 81.00
- PSI POLDIP3_1 (chr22:41327919-41328006, HeLa rtTA-HIV-DMls cells, replicates 25, 26, 27): 68.00 and 67.00 and 64.00
- DPSI POLDIP3_1 (chr22:41327919-41328006, mean PSI 5193892 minus DMSO, n=3, P Value 0.421): 2.33%
- AS events with DPSI ≤ -10% [1]: 7
- AS events with DPSI ≥ 10% [1]: 2
- AS events with P ≤ 0.05 [1]: 18
